Patent publication US7186521B2, “Determining the effect of a substance on sequestration, uptake, and accumulation of amyloid in brain cells” (The Regents of the University of California, priority 2000, dated 2007)
“Also recorded” adds a separate entry of the source. Ends that are not written are not given here.

Columns and labels:
[1] = test system: cultured hippocampal slices; assay: Aβ1–42 uptake/internalization in cultured hippocampal slices (Aβ1–42 immunocytochemistry, NIH Image quantification); assay type: cell-based, Sprague-Dawley rat; details: for number of Aβ-ir particles within the sample field / size (average area) of individual Aβ-ir particles / total area encompassed by Aβ-ir elements: CA1b stratum pyramidale; for number of Aβ-ir particles within the sample field: Aβ1–42 plus antagonist vs Aβ alone (FIG. 4G), significant for GRGDSP only; for size (average area) of individual Aβ-ir particles / total area encompassed by Aβ-ir elements: Aβ1–42 plus antagonist; for size (average area) of individual Aβ-ir particles: mean±sem relative to Aβ alone (FIG. 4E); for total area encompassed by Aβ-ir elements: mean±sem relative to Aβ alone (FIG. 4F); for effect on sequestration/uptake/internalization of Aβ1–42: co-incubated with Aβ1–42, 6 days, GRGDSP and GRADSP 2 mM, echistatin 2 μM; for slices with intraneuronal Aβ1–42 immunostaining: Aβ1–42 plus antagonist (GRGDSP 2 mM; echistatin 2 μM)
Procedure: (§1) Organotypic hippocampal cultures were prepared using the technique of Stoppini et al. (1991). Briefly, hippocampi were harvested from brains of 9–12 days old Sprague-Dawley rat pups under sterile conditions. Sections were cut (400 μm thick) perpendicular to the long axis of hippocampus using a Mclllwain tissue chopper and were collected into a cutting medium consisting of MEM with Earle's salts (Gibco, Rockville Md.), 25 mM HEPES, 10 mM Tris base, 10 mM glucose, and 3 mM MgCl2 (pH 7.2). Slices were positioned onto 30 mm cell culture inserts (Millicell-CM, Millipore, Bedford, […].) that were placed in 6 well culture trays with 1 ml of growth medium per well [growth medium: MEM with Hank's salts (Gibco), 20% horse serum, 3 mM glutamine, 25 mM HEPES, 5 mM NaHCO3, 25 mM glucose, 0.5 mM ascorbate, 2 mM CaCl2, 2.5 mM MgCl2, 0.5 mg/1 insulin, and penicillin, pH 7.2]. The cultures were incubated at 35° C. with a 5% CO2-enriched atmosphere and the media was changed every other day until use 10–12 days later.
(§2) Cultured hippocampal slices were exposed to media containing the human Aβ1–42 sequence in the presence or absence of the integrin antagonist peptide, Gly-Arg-Gly-Asp-Ser-Pro, or GRGDSP (SEQ. ID. No.3) (2 mM dissolved in media) (Ruoslahti, E., Ann Rev Cell Dev Biol 12:697–715 (1996)). In some cases, slices were co-treated with the specific NMDA receptor antagonist 2-amino-5-phosphonovalerate (AP5) (Sigma) at 50 μM. Control slices in neighboring wells received media-vehicle only. Aβ1–42 peptide solution was freshly prepared before the start of the experiment using 0.1N NaOH, pH adjusted with 0.1N HCl to 7.4, and then diluted with serum-free culture medium. Aβ was applied at 30 μM for 8–10 hr after which it was diluted to 15 μM by the addition of fresh culture media containing heated treated horse serum. Treatment was repeated every other day for a total 6 days. Disintegrins are small (4–10 kDa) RGD-containing, cysteine-rich peptides from snake venom that bind integrins with high affinity (Kd˜1 nM–0.1 μM) and are potent antagonists of integrin functions (Huang, T. F., Cell Mol Life Sci 54:527–540 (1998)for review). In some experiments the disintegrin echistatin (2 μM dissolved in media) was applied instead of GRGDSP (SEQ. ID. No.3).
(§3) The following treatment, slices were thoroughly washed with 0.1M sodium phosphate buffered saline (PBS), fixed for 12–16 hr in cold 0.1M phosphate buffer (PB; pH 7.2) containing 4% paraformaldehyde, cryoprotected in 20% sucrose/PB for 1–2 hr and then carefully removed from the insert membranes. Serial sections were cut at 25 μm thick, parallel to the broad face of the explant, using a freezing microtome. Immunocytochemistry was performed using the standard avidin biotin horseradish peroxidase complex (ABC) method using reagents and instructions of the VECTASTAIN® Elite ABC kit from Vector Laboratories (Burlingame, Calif.) with diaminobenzidine tetrahydrochloride (0.05% in 50 mM Tris-HCl buffer, pH 7.4) as chromagen and PBS for rinses and as diluent for antibody incubations. Briefly, free-floating sections were preincubated with 3% normal goat serum (for anti-Aβ1–42 and anti-cathepsin D antibodies) or 10% normal horse serum (for ED-1) in PBS for 1 hr at room temperature. […] Sections were washed in PBS, incubated in biotinylated anti-rabbit or anti-mouse IgG (both at 1:200) for 2–3 hr, washed in PBS, incubated in the avidin-biotin complex solution for 45 min and then processed through the diaminobenzidine reaction. After final rinses in PBS, sections were mounted on SuperFrost Plus slides (Fisher Scientific, Pittsburgh), air-dried, dehydrated in a series of graded ethanols, and coverslipped from Clearing Solvent (Stephens Scientific, Kalamazoo, Mich.) with Permount (Fisher).
Images centered on CA1b stratum pyramidale were obtained at 40× objective magnification using a Sony DKC-5000 digital camera attached to a Zeiss Universal microscope. […]

cathepsin D = assay: Cathepsin D immunoreactivity in cultured hippocampal slices; assay type: cell-based, Sprague-Dawley rat
Procedure: as §1, §2
The following treatment, slices were thoroughly washed with 0.1M sodium phosphate buffered saline (PBS), fixed for 12–16 hr in cold 0.1M phosphate buffer (PB; pH 7.2) containing 4% paraformaldehyde, cryoprotected in 20% sucrose/PB for 1–2 hr and then carefully removed from the insert membranes. Serial sections were cut at 25 μm thick, parallel to the broad face of the explant, using a freezing microtome. […]

reactive microglia = assay: Microglial activation (ED-1 immunoreactivity) in cultured hippocampal slices; assay type: cell-based, Sprague-Dawley rat; details: for effect on ED-1-ir microglia: 50 μM AP5 with Aβ1–42 and 2 mM GRGDSP, 6 days; for number of ED-1 positive cells: treatment by itself
Procedure: as §1, §2
as §3, with “After final rinses in PBS, sections were mounted on SuperFrost Plus slides (Fisher Scientific, Pittsburgh), air-dried, dehydrated in a series of graded ethanols, and coverslipped from Clearing Solvent (Stephens Scientific, Kalamazoo, Mich.) with Permount (Fisher).” left out

[2] = test system: integrin binding to fibronectin and vitronectin; details: literature; used as inactive control peptide; cited from earlier work
CHO cells = CHO cells in culture; Matter et al. 1998; cited from earlier work
[3] = test system: LTP stabilization in field CA1 of hippocampus; details: injection of 5 μM echistatin; Chun et al., 2001; cited from earlier work
RGD-binding integrins = assay: cell-based or functional assay
[4] = 50 μM AP5 with Aβ1–42 and 2 mM GRGDSP, 6 days
[5] = treatment alone, 6 days, count of slices with Aβ-ir out of number of slices tested (Aβ 45, RGD 14)
[6] = treatment alone, 6 days (GRGDSP 2 mM)
[7] = Aβ + antagonist co-incubation, 6 days, count out of slices tested (61, 16, 21, 16), RGD and RAD 2 mM, Ech 2 μM

For `NC(CCCP(=O)(O)O)C(=O)O` (stereo not shown) [AP5, 2-amino-5-phosphonovalerate], the “effect on GRGDSP-enhanced Aβ1–42 uptake” value [1, 4] was “completely blocked Aβ1–42 uptake; also recorded: completely eliminated Aβ uptake”, the “effect on cathepsin D-ir” value (cathepsin D; [4]) was “almost totally suppressed; also recorded: suppressed cathepsin D-ir” and the “effect on ED-1-ir microglia” value (reactive microglia) was “ED-1-ir (C′) to vehicle control levels”. The “effect on ED-1-ir microglia” value (reactive microglia; listed as AP-5) was “greatly reduced”.

With “Aβ1–42: human amyloid beta peptide, 42-residue form, applied exogenously to slices” the “slices with intraneuronal Aβ1–42 immunoreactivity (Aβ-ir)” value ([1]; Aβ1–42 alone, 6 days) was 42%, the Aβ positive cases [1, 5] was 19 and the “cathepsin D-ir” value (cathepsin D; [6]) was “did not cause substantial increases in cathepsin D-ir”. For the same molecule, the “number of ED-1 positive cells” value (reactive microglia) was “did not cause a noticeable increase in the number of ED-1 positive cells”.

For GRADSP, the Aβ positive cases [1, 7] was 9, the “number of Aβ-ir particles within the sample field” value [1] was “did not cause significant changes” and the “size (average area) of individual Aβ-ir particles” value (shortened to “size (average area)”) [1] was “did not cause significant changes”. For the same molecule, the “total area encompassed by Aβ-ir elements” value [1] was “did not cause significant changes”, the “effect on sequestration/uptake/internalization of Aβ1–42” value [1] was “did not measurably affect sequestration of Aβ1–42; also recorded: modest” and the “antagonism of integrin binding to fibronectin and vitronectin” value [2] was “very weak antagonist”.

With Gly-Arg-Gly-Asp-Ser-Pro [GRGDSP] the “slices with intraneuronal Aβ1–42 immunostaining” value ([1]; 6 days) was “More than 88%”, the “number of Aβ-ir particles within the sample field” value [1] was “increased the numbers of Aβ-ir particles” and the “size (average area)” value [1] was “+101±13%”. The “total area encompassed by Aβ-ir elements” value [1] was 324±16%, the “effect on sequestration/uptake/internalization of Aβ1–42” value [1] was “markedly increase sequestration of the exogenous peptide; also recorded: markedly enhances uptake in cultured hippocampal slices; also recorded: enhanced; also recorded: increased the uptake of Aβ1–42 peptide” and the “induction of Aβ-ir” value ([1]; peptide by itself, without Aβ1–42) was “did not induce Aβ-ir”. The Aβ positive cases [1, 5] was 0, the “cathepsin D-ir” value (cathepsin D; Aβ1–42 plus 2 mM GRGDSP, 6 days) was “generated intense intraneuronal cathepsin D-ir; also recorded: elevated” and the “cathepsin D-ir” value (cathepsin D; [6]) was “did not increase cathepsin D-ir”. The “microglial response (ED-1-ir)” value (reactive microglia; Aβ1–42 and GRGDSP applied together) was “produced a pronounced microglial response”, the “number of ED-1 positive cells” value (reactive microglia) was “did not cause a noticeable increase in the number of ED-1 positive cells” and the “effect on binding and uptake of Aβ” value (CHO cells) was “block the binding and uptake of Aβ in CHO cells”.

For “echistatin (QCESGPCCRNCKFLKEGTICKRARGDDMDDYCNGKTCDCPRNPHKGPAT)”, the “slices with intraneuronal Aβ1–42 immunostaining” value ([1]; 6 days) was 86%, the Aβ positive cases [1, 7] was 18 and the “number of Aβ-ir particles within the sample field” value [1] was “increased the numbers of Aβ-ir particles”. The “size (average area)” value [1] was “+95±13%”, the “total area encompassed by Aβ-ir elements” value [1] was 233±24% and the “effect on sequestration/uptake/internalization of Aβ1–42” value [1] was “significantly enhanced Aβ internalization; also recorded: increased the uptake of Aβ1–42 peptide”. The “effect on LTP stabilization” value [3] was “selectively disrupts LTP stabilization”.

B1: inactive control peptide Gly-Arg-Ala-Asp-Ser-Pro (GRADSP) (peptide)
peptide: GRADSP
Molecule B1 has an Aβ positive cases (slices with intraneuronal Aβ1-42 immunoreactivity), Aβ + RAD, of 16 slices tested (slices (of 16 tested)) (RGD-binding integrins) of 9.

B2: integrin antagonist peptide Gly-Arg-Gly-Asp-Ser-Pro (GRGDSP) (peptide)
peptide: GRGDSP
For B2, the Aβ positive cases (slices with intraneuronal Aβ1-42 immunoreactivity), Aβ + RGD, of 61 slices tested (slices (of 61 tested)) (RGD-binding integrins) was 54, the increase in size (mean area) of Aβ-ir elements in CA1 stratum pyramidale, relative to Aβ alone (RGD-binding integrins) was 101% and the total area encompassed by Aβ-immunoreactive elements, relative to Aβ alone (RGD-binding integrins) was 324%.
